In PubChem BioAssay (NCI):
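Protocol summary: plate cells (96-well), add compound at 5 concentrations, incubate 48 h, interpolate endpoints linearly. Here, GI50 denotes the concentration required for 50% inhibition of growth. TGI denotes the concentration required for complete inhibition of growth.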

Experiments:
Experiment in all cases: NCI anticancer screen, dose series, 48 h
[1] = test system: COLO 205 colon
[2] = test system: LOX IMVI melanoma
[3] = test system: BT-549 breast
[4] = test system: CCRF-CEM leukemia
[5] = test system: A549 NSCLC
[6] = test system: NCI-H226 lung
[7] = test system: HT29 colon
[8] = test system: SR leukemia
[9] = test system: UO-31 renal
[10] = test system: HL-60(TB) leukemia
[11] = test system: SK-MEL-2 melanoma
[12] = test system: U251 CNS
[13] = test system: SF-268 CNS
[14] = test system: HS 578T breast
[15] = test system: SW-620 colon
[16] = test system: HCC-2998 colon
[17] = test system: TK-10 renal
[18] = test system: SF-539 CNS
[19] = test system: UACC-62 melanoma
[20] = test system: HCT-15 colon
[21] = test system: HCT-116 colon
[22] = test system: SN12C renal
[23] = test system: MOLT-4 leukemia
[24] = test system: A498 renal
[25] = test system: KM12 colon
[26] = test system: T-47D breast
[27] = test system: NCI-H460 lung
[28] = test system: SF-295 CNS
[29] = test system: HOP-92 NSCLC
[30] = test system: K-562 leukemia
[31] = test system: SK-MEL-5 melanoma
[32] = test system: MDA-MB-231 breast
[33] = test system: SNB-19 CNS
[34] = test system: IGROV1 ovarian
[35] = test system: NCI/ADR-RES ovarian
[36] = test system: EKVX NSCLC
[37] = test system: 786-0 renal
[38] = test system: OVCAR-3 ovarian
[39] = test system: NCI-H23 lung
[40] = test system: RPMI-8226 leukemia
[41] = test system: MDA-MB-435
[42] = test system: SNB-75 CNS
[43] = test system: RXF 393 renal
[44] = test system: OVCAR-8 ovarian
[45] = test system: PC-3 prostate
[46] = test system: OVCAR-5 ovarian
[47] = test system: ACHN renal
[48] = test system: UACC-257 melanoma
[49] = test system: M14 melanoma
[50] = test system: MCF7 breast
[51] = test system: HOP-62 NSCLC
[52] = test system: CAKI-1 renal
[53] = test system: MALME-3M melanoma
[54] = test system: SK-OV-3 ovarian
[55] = test system: NCI-H522 lung
[56] = test system: DU-145 prostate
[57] = test system: OVCAR-4 ovarian
[58] = test system: SK-MEL-28 melanoma

## CCN(CC)CCCCNc1c2ccccc2[n+](C)c2c1[nH]c1ccccc12
[1]
  GI50: 0.189 µM
  TGI: 0.983 µM
[2]
  GI50: 0.346 µM
  TGI: 2.03 µM
[3]
  GI50: 1.67 µM
  TGI: 4.15 µM
[4]
  GI50: 0.59 µM
  TGI: 3.39 µM
[5]
  GI50: 0.0558 µM
  TGI: 33.2 µM
[6]
  GI50: 0.202 µM
  TGI: 1.18 µM
[7]
  GI50: 0.229 µM
  TGI: 1.09 µM
[8]
  GI50: 0.373 µM
  TGI: 42.2 µM
[9]
  GI50: 3.13 µM
  TGI: > 50.6 µM
[10]
  GI50: 5.69 µM
  TGI: > 31 µM
[11]
  GI50: 0.31 µM
  TGI: 0.956 µM
[12]
  GI50: 0.238 µM
  TGI: 4.46 µM
[13]
  GI50: 0.209 µM
  TGI: 1.4 µM
[14]
  GI50: 0.238 µM
  TGI: 0.865 µM
[15]
  GI50: 395 nM
  TGI: 7.47 µM
[16]
  GI50: 270 nM
  TGI: 0.763 µM
[17]
  GI50: 2.52 µM
  TGI: 12.6 µM
[18]
  GI50: 0.473 µM
  TGI: 1.74 µM
[19]
  GI50: 0.0868 µM
  TGI: 0.26 µM
[20]
  GI50: 7.15 µM
  TGI: > 70 µM
[21]
  GI50: 356 nM
[22]
  GI50: 0.0699 µM
  TGI: 6.08 µM
[23]
  GI50: 0.269 µM
  TGI: 23.8 µM
[24]
  GI50: 0.613 µM
  TGI: 2.39 µM
[25]
  GI50: 385 nM
  TGI: 4.79 µM
[26]
  GI50: 0.178 µM
  TGI: 1.1 µM
[27]
  GI50: 0.0837 µM
  TGI: 2.27 µM
[28]
  GI50: 0.542 µM
  TGI: 4.31 µM
[29]
  TGI: 0.28 µM
[30]
  GI50: 0.379 µM
  TGI: 3.9 µM
[31]
  GI50: 0.283 µM
  TGI: 0.976 µM
[32]
  TGI: > 20.3 µM
[33]
  GI50: 0.269 µM
  TGI: 2.03 µM
[34]
  GI50: 0.473 µM
  TGI: 7.4 µM
[35]
  GI50: 48.8 µM
  TGI: > 100 µM
[36]
  GI50: 0.298 µM
  TGI: 3.16 µM
[37]
  GI50: 1.29 µM
  TGI: > 26 µM
[38]
  GI50: 0.433 µM
  TGI: 3.56 µM
[39]
  GI50: 221 nM
  TGI: 1.07 µM
[40]
  GI50: 255 nM
  TGI: 1.32 µM
[41]
  GI50: 0.6 µM
  TGI: 2.16 µM
[42]
  GI50: 0.297 µM
  TGI: 1.27 µM
[43]
  GI50: 0.402 µM
  TGI: 2.16 µM
[44]
  GI50: 0.786 µM
  TGI: 19.8 µM
[45]
  GI50: 0.355 µM
  TGI: 2.29 µM
[46]
  GI50: 1000 nM
  TGI: 11.5 µM
[47]
  GI50: 2270 nM
  TGI: > 47.3 µM
[48]
  GI50: 0.84 µM
  TGI: 2.4 µM
[49]
  GI50: 1.41 µM
  TGI: 4.64 µM
[50]
  GI50: 0.256 µM
  TGI: 3.63 µM
[51]
  GI50: 683 nM
  TGI: 6.15 µM
[52]
  GI50: 2.05 µM
  TGI: 14.4 µM
[53]
  GI50: 0.217 µM
  TGI: 0.671 µM
[54]
  GI50: 0.366 µM
  TGI: 3.72 µM
[55]
  GI50: 0.0796 µM
  TGI: 0.217 µM
[56]
  GI50: 0.182 µM
  TGI: 11.5 µM
[57]
  GI50: 0.345 µM
  TGI: 2.57 µM
[58]
  GI50: 0.201 µM
  TGI: 0.539 µM

## C#Cc1c(F)ccc2cc(O)cc(-c3ncc4c(N5CC6CCC(C5)N6)nc(OC[C@@]56CCCN5C[C@H](F)C6)nc4c3F)c12
[1]
  GI50: 16.1 µM
  TGI: 45.1 µM
[2]
  GI50: 15.5 µM
  TGI: 41.9 µM
[3]
  GI50: 8.22 µM
  TGI: 22.8 µM
[4]
  GI50: 8.21 µM
  TGI: 29.1 µM
[5]
  GI50: 10.9 µM
  TGI: 45.2 µM
[6]
  GI50: 15.1 µM
  TGI: 35.1 µM
[7]
  GI50: 9.99 µM
  TGI: 31 µM
[8]
  GI50: 6.53 µM
  TGI: > 100 µM
[9]
  GI50: > 34.8 µM
  TGI: > 50.2 µM
[10]
  GI50: 8.23 µM
  TGI: 26.6 µM
[11]
  GI50: 16.9 µM
  TGI: 32.9 µM
[12]
  GI50: 10.9 µM
  TGI: 31.5 µM
[13]
  GI50: 12 µM
  TGI: 25.4 µM
[14]
  GI50: 8.47 µM
  TGI: 28.2 µM
[15]
  GI50: 1320 nM
  TGI: 10.3 µM
[16]
  GI50: 1320 nM
  TGI: 17.5 µM
[17]
  GI50: 21.8 µM
  TGI: > 55.5 µM
[18]
  GI50: 14 µM
  TGI: 27.2 µM
[19]
  GI50: 16.6 µM
  TGI: 30.5 µM
[20]
  GI50: 34.7 µM
  TGI: > 50.6 µM
[21]
  GI50: 2620 nM
  TGI: 14 µM
[22]
  GI50: 14.8 µM
  TGI: 31 µM
[23]
  GI50: 8.72 µM
  TGI: 28.4 µM
[24]
  GI50: 15.7 µM
  TGI: 34.2 µM
[25]
  GI50: 5030 nM
  TGI: 17.5 µM
[26]
  GI50: 16.3 µM
  TGI: 40.1 µM
[27]
  GI50: 6.87 µM
  TGI: 21.2 µM
[28]
  GI50: 15.9 µM
  TGI: 32 µM
[29]
  GI50: 4.01 µM
  TGI: 16.5 µM
[30]
  GI50: 8.12 µM
  TGI: > 65.5 µM
[31]
  GI50: 14.9 µM
  TGI: 28.2 µM
[32]
  GI50: 2360 nM
  TGI: 13.7 µM
[33]
  GI50: 13.4 µM
  TGI: 26.3 µM
[34]
  GI50: 13.9 µM
  TGI: 29.9 µM
[35]
  GI50: > 100 µM
  TGI: > 100 µM
[36]
  GI50: 21.7 µM
  TGI: > 54.6 µM
[37]
  GI50: 15 µM
  TGI: 31 µM
[38]
  GI50: 12.7 µM
  TGI: 25.9 µM
[39]
  GI50: 1940 nM
  TGI: 15.1 µM
[40]
  GI50: 5100 nM
  TGI: 29.9 µM
[41]
  GI50: 13.6 µM
  TGI: 27.3 µM
[42]
  GI50: 17.1 µM
  TGI: 46.4 µM
[43]
  GI50: 13.5 µM
  TGI: 27.5 µM
[44]
  GI50: 17.3 µM
  TGI: 36.4 µM
[45]
  GI50: 14.8 µM
  TGI: 33.8 µM
[46]
  GI50: 2510 nM
  TGI: 13.5 µM
[47]
  GI50: > 39400 nM
  TGI: > 53.8 µM
[48]
  GI50: 18.1 µM
  TGI: 35.1 µM
[49]
  GI50: 14 µM
  TGI: 29.6 µM
[50]
  GI50: 8.48 µM
  TGI: 24 µM
[51]
  GI50: 2180 nM
  TGI: 22.4 µM
[52]
  GI50: 17.5 µM
  TGI: 35.6 µM
[53]
  GI50: 15.5 µM
  TGI: 29.3 µM
[54]
  GI50: 17.7 µM
  TGI: 35.6 µM
[55]
  GI50: 14.5 µM
  TGI: 31.3 µM
[56]
  GI50: 14.9 µM
  TGI: 28.6 µM
[57]
  GI50: 16.8 µM
  TGI: 37.1 µM
[58]
  GI50: 15.6 µM
  TGI: 29.1 µM
